Earlier results, collected in patent US11369558B1, “Multi-component nutritional supplement formulations and treatment regimen” (priority 2018, dated 2022).

Conditions: in the human body

## C[S+](C)[O-] [DMSO, dimethyl sulfoxide]
  Share of DMSO converted to MSM: approximately 15%
